In US5227153A, “Use of 4-(2-oxo-3-bornylidenemethyl)benzenesulfphonic acid or its salts for the protection of hair against environmental attacking agents, and in particular against light, and process for the protection of hair using this compound” (L'Oreal, priority 1988, dated 1993):

Tests used:
[1] = 15% wet extension level of bleached hair after exposure to light (SUNTEST HANAU xenon apparatus)
Protocol: (§1) The 15% extension level is the weight to be applied to wet hair of given length to extend it by 15%. The higher the weight, the stronger and more elastic the hair.
This composition is applied to bleached hair, then rinsed. The hair is then exposed to the Suntest by means of a "SUNTEST HANAU" apparatus for 120 hours. This apparatus consists of a xenon light emitter and a system of filters producing a radiation corresponding to a very large extend to solar radiation. The energy radiation is about 585 W/m^2 in the wavelength range between 300 and 830 nm (overall radiation).
After applying this foam to bleached hair three times and without consecutive rinsing, the hair is exposed to the Suntest as described in Example 1 for 180 hours.
Bleached hair treated with one application of this spray and not rinsed is then exposed to the Suntest under the conditions described in Example 1 for 120 hours.
Bleached hair treated with one application of this gel and not rinsed is then exposed to the Suntest under the conditions described in Example 1 for 120 hours.

[2] = Mechanical properties of hair after exposure in natural light and artificial xenon light; details: natural light (sunny environment) and artificial light (xenon, SUNTEST HANAU)
Text: as §1
It has been possible to reveal this property by exposure in natural light (sunny environment) and artificial light (xenon light emitter in a SUNTEST HANAU type accelerated aging apparatus).

Structure (SMILES): CC12CCC(C(=Cc3ccc(S(=O)(=O)O)cc3)C1=O)C2(C)C (centres unmarked) [4-(2-oxo-3-bornylidenemethyl)benzenesulphonic acid]
- improvement in the mean value of the 15% wet extension level ([1]; rinse composition with 5 g per 100 g of the acid, rinsed, Suntest 120 hours, compared to same rinse containing no acid): very significantly improved
- improvement in the mean value of the 15% wet extension level ([1]; styling foam with 1.5 g per 100 g of the acid (90 g composition + 10 g propellant), applied three times, not rinsed, Suntest 180 hours, compared to same foam containing no acid): appreciable improvement
- improvement in the mean value of the 15% wet extension level ([1]; styling gel with 0.4 g per 100 g of the acid, one application, not rinsed, Suntest 120 hours, compared to same gel without the acid): appreciable improvement
- improvement in the mean value of the 15% wet extension level ([1]; styling spray with 1 g per 100 g of the acid, one application, not rinsed, Suntest 120 hours, compared to same spray containing no acid): significant improvement
- preservation of the mechanical properties of hair from degradation by light [2]: can preserve the mechanical properties of hair
